# Source: PubChem BioAssay (NCI)
#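 At the GI50, growth is halved. At the TGI there is no net growth.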
# How the values were obtained:
# Assay in all cases: growth of human tumour cells (NCI), 384-well format
# NCI/ADR-RES ovarian = tested on: NCI/ADR-RES ovarian
# SW-620 colon = tested on: SW-620 colon
# UACC-62 melanoma = tested on: UACC-62 melanoma
# MOLT-4 leukemia = tested on: MOLT-4 leukemia
# ACHN renal = tested on: ACHN renal
# HS 578T breast = tested on: HS 578T breast
# M14 melanoma = tested on: M14 melanoma
# T-47D breast = tested on: T-47D breast
# SK-MEL-28 melanoma = tested on: SK-MEL-28 melanoma
# HCT-116 colon = tested on: HCT-116 colon
# SN12C renal = tested on: SN12C renal
# HOP-92 NSCLC = tested on: HOP-92 NSCLC
# RXF 393 renal = tested on: RXF 393 renal
# NCI-H460 NSCLC = tested on: NCI-H460 NSCLC
# COLO 205 colon = tested on: COLO 205 colon
# RPMI-8226 leukemia = tested on: RPMI-8226 leukemia
# EKVX NSCLC = tested on: EKVX NSCLC
# IGROV1 ovarian = tested on: IGROV1 ovarian
# HOP-62 NSCLC = tested on: HOP-62 NSCLC
# OVCAR-8 ovarian = tested on: OVCAR-8 ovarian
# SK-OV-3 ovarian = tested on: SK-OV-3 ovarian
# MALME-3M melanoma = tested on: MALME-3M melanoma
# NCI-H23 lung = tested on: NCI-H23 lung
# MDA-MB-468 breast = tested on: MDA-MB-468 breast
# BT-549 breast = tested on: BT-549 breast
# A549 NSCLC = tested on: A549 NSCLC
# MCF7 breast = tested on: MCF7 breast
# MDA-MB-231 breast = tested on: MDA-MB-231 breast
# DU-145 prostate = tested on: DU-145 prostate
# HCT-15 colon = tested on: HCT-15 colon
# SF-539 CNS = tested on: SF-539 CNS
# SK-MEL-5 melanoma = tested on: SK-MEL-5 melanoma
# K-562 leukemia = tested on: K-562 leukemia
# SF-268 CNS = tested on: SF-268 CNS
# HCC-2998 colon = tested on: HCC-2998 colon
# TK-10 renal = tested on: TK-10 renal
# OVCAR-4 ovarian = tested on: OVCAR-4 ovarian
# NCI-H226 lung = tested on: NCI-H226 lung
# NCI-H522 lung = tested on: NCI-H522 lung
# SR leukemia = tested on: SR leukemia
# A498 renal = tested on: A498 renal
# OVCAR-3 ovarian = tested on: OVCAR-3 ovarian
# LOX IMVI melanoma = tested on: LOX IMVI melanoma
# SNB-19 CNS = tested on: SNB-19 CNS
# CCRF-CEM leukemia = tested on: CCRF-CEM leukemia
# UACC-257 melanoma = tested on: UACC-257 melanoma
# 786-0 renal = tested on: 786-0 renal
# SNB-75 CNS = tested on: SNB-75 CNS
# HL-60(TB) leukemia = tested on: HL-60(TB) leukemia
# CAKI-1 renal = tested on: CAKI-1 renal
# NCI-H322M lung = tested on: NCI-H322M lung
# MDA-MB-435 melanoma = tested on: MDA-MB-435 melanoma
# PC-3 prostate = tested on: PC-3 prostate
# U251 glioblastoma = tested on: U251 glioblastoma
# UO-31 renal = tested on: UO-31 renal
structure (smiles),measurement,setting,value
COc1cc(OC)cc(N2CCN(C(=O)Nc3nc4cc(F)ccc4nc3OC)CC2)c1,GI50,NCI/ADR-RES ovarian,14 nM
same,TGI,NCI/ADR-RES ovarian,32.1 nM
same,GI50,SW-620 colon,36.5 nM
same,TGI,SW-620 colon,18800 nM
same,GI50,UACC-62 melanoma,< 10 nM
same,TGI,UACC-62 melanoma,15000 nM
same,GI50,MOLT-4 leukemia,18.2 nM
same,TGI,MOLT-4 leukemia,32.8 nM
same,GI50,ACHN renal,65.7 nM
same,TGI,ACHN renal,20200 nM
same,GI50,HS 578T breast,17 nM
same,TGI,HS 578T breast,35.6 nM
same,GI50,M14 melanoma,15.7 nM
same,TGI,M14 melanoma,38.2 nM
same,GI50,T-47D breast,55.4 nM
same,TGI,T-47D breast,19600 nM
same,GI50,SK-MEL-28 melanoma,120 nM
same,TGI,SK-MEL-28 melanoma,22300 nM
same,GI50,HCT-116 colon,31.2 nM
same,TGI,HCT-116 colon,151 nM
same,GI50,SN12C renal,28 nM
same,TGI,SN12C renal,16200 nM
same,GI50,HOP-92 NSCLC,48.3 nM
same,TGI,HOP-92 NSCLC,15600 nM
same,GI50,RXF 393 renal,< 10 nM
same,TGI,RXF 393 renal,21.9 nM
same,GI50,NCI-H460 NSCLC,21.1 nM
same,TGI,NCI-H460 NSCLC,48.7 nM
same,GI50,COLO 205 colon,27.7 nM
same,TGI,COLO 205 colon,84.8 nM
same,GI50,RPMI-8226 leukemia,17 nM
same,TGI,RPMI-8226 leukemia,31.8 nM
same,GI50,EKVX NSCLC,27.5 nM
same,TGI,EKVX NSCLC,14600 nM
same,GI50,IGROV1 ovarian,42.5 nM
same,TGI,IGROV1 ovarian,15000 nM
same,GI50,HOP-62 NSCLC,21.8 nM
same,TGI,HOP-62 NSCLC,1700 nM
same,GI50,OVCAR-8 ovarian,27.6 nM
same,TGI,OVCAR-8 ovarian,91.2 nM
same,GI50,SK-OV-3 ovarian,35.1 nM
same,TGI,SK-OV-3 ovarian,11700 nM
same,GI50,MALME-3M melanoma,24.7 nM
same,TGI,MALME-3M melanoma,14800 nM
same,GI50,NCI-H23 lung,20.7 nM
same,TGI,NCI-H23 lung,55.4 nM
same,GI50,MDA-MB-468 breast,16.1 nM
same,TGI,MDA-MB-468 breast,32.1 nM
same,GI50,BT-549 breast,23.7 nM
same,TGI,BT-549 breast,68.5 nM
same,GI50,A549 NSCLC,38.2 nM
same,TGI,A549 NSCLC,18500 nM
same,GI50,MCF7 breast,26.2 nM
same,TGI,MCF7 breast,5570 nM
same,GI50,MDA-MB-231 breast,54.5 nM
same,TGI,MDA-MB-231 breast,84700 nM
same,GI50,DU-145 prostate,34.7 nM
same,TGI,DU-145 prostate,249 nM
same,GI50,HCT-15 colon,22.4 nM
same,TGI,HCT-15 colon,1180 nM
same,GI50,SF-539 CNS,18.2 nM
same,TGI,SF-539 CNS,49.5 nM
same,GI50,SK-MEL-5 melanoma,13.1 nM
same,TGI,SK-MEL-5 melanoma,45.3 nM
same,GI50,K-562 leukemia,17.4 nM
same,TGI,K-562 leukemia,43.3 nM
same,GI50,SF-268 CNS,30.4 nM
same,TGI,SF-268 CNS,415 nM
same,GI50,HCC-2998 colon,20.7 nM
same,TGI,HCC-2998 colon,76.9 nM
same,GI50,TK-10 renal,57.1 nM
same,TGI,TK-10 renal,23100 nM
same,GI50,OVCAR-4 ovarian,314 nM
same,TGI,OVCAR-4 ovarian,31700 nM
same,GI50,NCI-H226 lung,18.6 nM
same,TGI,NCI-H226 lung,70.8 nM
same,GI50,NCI-H522 lung,< 10 nM
same,TGI,NCI-H522 lung,22 nM
same,GI50,SR leukemia,< 10 nM
same,GI50,A498 renal,< 10 nM
same,TGI,A498 renal,96.6 nM
same,GI50,OVCAR-3 ovarian,12.1 nM
same,TGI,OVCAR-3 ovarian,31.4 nM
same,GI50,LOX IMVI melanoma,39.8 nM
same,TGI,LOX IMVI melanoma,380 nM
same,GI50,SNB-19 CNS,36.3 nM
same,TGI,SNB-19 CNS,12800 nM
same,GI50,CCRF-CEM leukemia,18.7 nM
same,TGI,CCRF-CEM leukemia,33.3 nM
same,GI50,UACC-257 melanoma,37.2 nM
same,TGI,UACC-257 melanoma,20100 nM
same,GI50,786-0 renal,28.4 nM
same,TGI,786-0 renal,267 nM
same,GI50,SNB-75 CNS,23.4 nM
same,TGI,SNB-75 CNS,127 nM
same,GI50,HL-60(TB) leukemia,16.5 nM
same,TGI,HL-60(TB) leukemia,30.6 nM
same,GI50,CAKI-1 renal,15.8 nM
same,TGI,CAKI-1 renal,15100 nM
same,GI50,NCI-H322M lung,64 nM
same,TGI,NCI-H322M lung,37600 nM
same,GI50,MDA-MB-435 melanoma,< 10 nM
same,TGI,MDA-MB-435 melanoma,21.2 nM
same,GI50,PC-3 prostate,25.4 nM
same,TGI,PC-3 prostate,15200 nM
same,GI50,U251 glioblastoma,32.7 nM
same,TGI,U251 glioblastoma,12100 nM
same,GI50,UO-31 renal,51.3 nM
same,TGI,UO-31 renal,18300 nM
